Source: patent US20090221522A1, “METHODS TO CORRECT GENE SET EXPRESSION PROFILES TO DRUG SENSITIVITY” (The Johns Hopkins University, priority 2008, published 2009)

Key:
pancreatic cancer = conditions: cited from earlier work
[1] = test system: Resectable Pancreatic Adenocarcinoma; test: Disease free survival after adjuvant gemcitabine; type: in vivo, human
Description: Statistical analysis was performed using software SPSS version 16 (SPSS Inc., Chicago, Ill.). P-values <0.05 were regarded as significant. Disease free survival (DFS) was analyzed using the Kaplan-Meier method and compared with the log-rank test.
The connectivity concept of the present invention can be used with actual patient profiles. Patients were recruited under the Phase II Study of an Individualized Drug Treatment Selection Process Based on a Tumor Xenograft Model for Patients with Resectable Pancreatic Adenocarcinoma (JHOC-J0507 JHOC-05041402, NCT00276744). All patients signed the informed consent of this trial. Twenty-four of the patients with complete follow-up data were included in this study. Direct-patient xenograft cases from the PancXenoBank, Rubio-Viqueira B, Jimeno A, Cusatis G, et al: An In vivo Platform for Translational Drug Development in Pancreatic Cancer. Clin Cancer Res 12:4652-4661, 2006, were also used.
The mean age of diagnosis for these patients is 65 years (range from 41 to 81 years). All patients received gemcitabine as adjuvant chemotherapy. Herrmann R, Bodoky G, Ruhstaller T, et al: Gemcitabine Plus Capecitabine Compared With Gemcitabine Alone in Advanced Pancreatic Cancer: A Randomized, Multicenter, Phase III Trial of the Swiss Group for Clinical Cancer Research and the Central European Cooperative Oncology Group. […] Cancer 85:1261-1268, 1999. […] See Oettle H, Post S, Neuhaus P, et al: Adjuvant Chemotherapy with Gemcitabine vs. Observation in Patients Undergoing Curative-Intent Resection of Pancreatic Cancer: A Randomized Controlled Trial. JAMA 297:267-277, 2007. The median DFS for these patients was 291 days.
Using the methods of the present invention, where a patient is connected to a sensitive cell line, the patient will be predicted as sensitive to gemcitabine and vice versa. This approach achieved an overall prediction accuracy of 71% on these retrospective patient samples. […] The positive predicted value and negative predicted value are 73% and 69%, respectively. […]

[2] = test system: direct-patient pancreatic cancer xenografts; test: Xenograft treatment, relative tumor growth inhibition (TGI); type: in vivo, mice
Text: Four- to six-week-old female athymic (nu/nu) mice were purchased from Harlan (Harlan Laboratories, Washington, D.C.). The research protocol was approved by the Johns Hopkins University Animal Use and Care Committee and animals were maintained in accordance to guidelines of the American Association of Laboratory Animal Care. Xenografts obtained from F1 mice were excised and cut into small ˜3×3×3 mm fragments and then implanted subcutaneously in a group of five to six mice for each patient, with two small fragments in each mouse (F2) as described above for the original carcinoma. Half of the rest of the carcinoma was cryopreserved in liquid nitrogen and the other half is processed for biological studies. When the carcinoma reached a size of 1,500 mm^3, they were excised, cut into ˜3×3×3 mm fragments, and transplanted to the final cohort of mice to be treated with the drugs (F3 and successive passages). Further details of the establishment of the direct-patient pancreatic cancer xenografts are described in Rubio-Viqueira B, Jimeno A, Cusatis G, et al. An In vivo Platform for Translational Drug Development in Pancreatic Cancer. Clin Cancer Res 2006 12:4652-61.
Gemcitabine (Eli Lilly, Indianapolis, Ind.) was dissolved in saline. In some embodiments, docetaxel (Sanofi-Aventis, Bridgewater, N.J.) was dissolved in 50% ethanol and 50% DMSO. In other embodiments, docetaxel (Sanofi-Aventis, Bridgewater, N.J.) was dissolved in ethanol/polysorbate 80 as a stock solution and diluted 10-fold in 5% glucose for in vivo studies. Temsirolimus (Wyeth Research, Colleville, Pa.) was dissolved in 10% ethanol, 10% pluronic, and 80% PBS. All drugs were freshly prepared and used at an injection volume of 0.2 mL/20 g body weight. Drug doses and treatment schedules were obtained from published studies.
Xenografts from this second mouse-to-mouse passage (F3) were allowed to grow to a size of ˜200 mm^3, at which time five-to-six mice were randomly assigned to control and treatment groups. […] For docetaxel treatment group, mice were treated with 20 mg/kg once a week via intraperitoneal injection. For temsirolimus treatment group, mice were treated with 20 mg/kg/day via intraperitoneal injection. Mice were treated for 21-28 days, monitored daily for signs of toxicity, and were weighed thrice a week. Tumor size was evaluated thrice a week by caliper measurements using the following formula: tumor volume=[length×width^2]/2 as reported by van de Vijver M J, He Y D, van't Veer L J, et al. A Gene-Expression Signature as a Predictor of Survival in Breast Cancer. N Engl J Med 2002 347:1999-2009.
Relative tumor growth index (TGI) was calculated as TGI=(Ti−T0/Ci−C0) if Ti>T0 (indicates tumor growth inhibition) and TGI=(Ti−T0) if Ti≦T0 (indicates tumor regression). T and C represent tumor size in the treated and control group at the last of experiment, respectively; T0 and C0 represent tumor size in the treated and control group at the start of treatment, respectively.

In the case of `Nc1ccn([C@@H]2O[C@H](CO)[C@@H](O)C2(F)F)c(=O)n1` [gemcitabine], the “patients who benefit from this therapy” value (pancreatic cancer; first-line) is listed as ~20%, the response rate (pancreatic cancer; pancreatic cancer patients) is listed as “less than 20%” and the “median DFS” value ([1]; all 24 patients, gemcitabine as adjuvant chemotherapy) is listed as 291 days. The “median DFS” value ([1]; predicted gemcitabine resistant group) was 162 days, the “median DFS” value ([1]; predicted gemcitabine sensitive group) was 491 days and the “average TGI” value ([2]; five xenografts connected to gemcitabine sensitive NCI-60 cell lines) was −24%. The “responders (TGI less than −30%, RECIST criterion)” value ([2]; of thirty xenografts, gemcitabine, PANC194, PANC266, PANC294, PANC140, PANC253) was “five responders” and the TGI ([2]; xenograft PANC194, gemcitabine) was −63%.
